Experiments:
[1] = molecular target: Integrin alpha-V/beta-3 (Homo sapiens) (UniProt P05106+P06756); assay: Inhibition of alpha-V-beta-3 receptor; type: protein-complex assay
[2] = molecular target: Integrin alpha-V/beta-5 (Homo sapiens) (UniProt P06756+P18084); assay: Inhibition of alpha-V-beta-5 receptor; type: protein-complex assay

Row | Compound | Activity [1] [µM] | Activity [2] [µM]
1 | N=C(N)NCCC[C@@H]1NC(=O)[C@H]2C/C=C\C[C@H](NC(=O)[C@H](CC(=O)O)NC(=O)CNC1=O)C(=O)N2 | 0.159 | 0.538
2 | N=C(N)NCCC[C@@H]1NC(=O)[C@H]2CCCC[C@H](NC(=O)[C@H](CC(=O)O)NC(=O)CNC1=O)C(=O)N2 | 0.28 | > 5
3 | N=C(N)NCCC[C@@H]1NC(=O)[C@@H]2CCCC[C@@H](NC(=O)[C@H](CC(=O)O)NC(=O)CNC1=O)C(=O)N2 | 0.615 | > 5
4 | N=C(N)NCCC[C@@H]1NC(=O)[C@@H]2C/C=C\C[C@@H](NC(=O)[C@H](CC(=O)O)NC(=O)CNC1=O)C(=O)N2 | 0.925 | > 5

Reference: ChEMBL document CHEMBL1146186, “Synthesis and biological evaluation of type VI beta-turn templated RGD peptidomimetics” (Bioorg Med Chem Lett, 2006)
